# Data: ChEMBL document CHEMBL4017516, “Sulfonium as a Surrogate for Ammonium: A New α7 Nicotinic Acetylcholine Receptor Partial Agonist with Desensitizing Activity” (J Med Chem, 2017)
# Activity calls are given as the source filed them. The rule behind the calls is not given here.
# What was measured:
# [1] = target: T1, Neuronal acetylcholine receptor subunit alpha-7 (Homo sapiens, UniProt P36544); assay: Silent agonist activity at human alpha7 nAChR expressed in Xenopus laevis oocytes assessed as induction of PNU-120596-stimulated peak current response at 100 uM administered for 12 secs followed by washout period for 181 secs by voltage clamp technique relative to acetylcholine; assay type: cell-based
# T1 sequence (P36544 whole entry): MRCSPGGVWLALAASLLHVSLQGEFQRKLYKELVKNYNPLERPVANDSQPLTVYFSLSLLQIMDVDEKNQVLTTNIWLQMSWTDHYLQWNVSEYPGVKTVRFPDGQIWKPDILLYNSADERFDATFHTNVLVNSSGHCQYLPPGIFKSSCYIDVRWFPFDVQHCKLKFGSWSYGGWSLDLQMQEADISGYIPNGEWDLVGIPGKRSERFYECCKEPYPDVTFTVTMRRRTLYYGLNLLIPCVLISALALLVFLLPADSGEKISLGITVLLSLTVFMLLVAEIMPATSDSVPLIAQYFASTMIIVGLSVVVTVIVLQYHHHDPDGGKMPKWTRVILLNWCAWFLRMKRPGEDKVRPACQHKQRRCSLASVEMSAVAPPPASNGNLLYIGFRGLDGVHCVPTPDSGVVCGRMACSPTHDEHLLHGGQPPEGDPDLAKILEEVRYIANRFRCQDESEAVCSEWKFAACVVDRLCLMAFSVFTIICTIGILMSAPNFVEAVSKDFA
# [2] = target: T1, Neuronal acetylcholine receptor subunit alpha-7; assay: Silent agonist activity at human alpha7 nAChR expressed in Xenopus laevis oocytes assessed as induction of PNU-120596-stimulated peak current response at 10 uM administered for 12 secs followed by washout period for 181 secs by voltage clamp technique relative to acetylcholine; assay type: cell-based
# [3] = target: T1, Neuronal acetylcholine receptor subunit alpha-7; assay: Silent agonist activity at human alpha7 nAChR expressed in Xenopus laevis oocytes assessed as induction of PNU-120596-stimulated peak current response at 30 uM administered for 12 secs followed by washout period for 181 secs by voltage clamp technique relative to acetylcholine; assay type: cell-based
# [4] = target: T1, Neuronal acetylcholine receptor subunit alpha-7; assay: Partial agonist activity at human alpha7 nAChR expressed in Xenopus laevis oocytes assessed as induction of maximum current response administered for 12 secs followed by washout period for 181 secs by voltage clamp technique; assay type: cell-based
# [5] = target: T1, Neuronal acetylcholine receptor subunit alpha-7; assay: Antagonist activity at human alpha7 nAChR expressed in Xenopus laevis oocytes assessed as inhibition of acetylcholine-induced current response at 300 uM administered for 12 secs followed by washout period for 181 secs by voltage clamp technique relative to acetylcholine; assay type: cell-based
# [6] = target: T1, Neuronal acetylcholine receptor subunit alpha-7; assay: Partial agonist activity at human alpha7 nAChR expressed in Xenopus laevis oocytes assessed as induction of maximum current response at 100 uM administered for 12 secs followed by washout period for 181 secs by voltage clamp technique relative to acetylcholine; assay type: cell-based
# [7] = target: T1, Neuronal acetylcholine receptor subunit alpha-7; assay: Partial agonist activity at human alpha7 nAChR expressed in Xenopus laevis oocytes assessed as induction of maximum current response at 10 to 300 uM administered for 12 secs followed by washout period for 181 secs by voltage clamp technique; assay type: cell-based
# [8] = target: T1, Neuronal acetylcholine receptor subunit alpha-7; assay: Antagonist activity at human alpha7 nAChR expressed in Xenopus laevis oocytes assessed as inhibition of acetylcholine-induced current response administered for 12 secs followed by washout period for 181 secs by voltage clamp technique; assay type: cell-based
# [9] = target: T2, Neuronal acetylcholine receptor; alpha4/beta2 (Homo sapiens, UniProt P17787+P43681); assay: Agonist activity at human alpha4beta2 nAChR expressed in Xenopus laevis oocytes assessed as induction of current response administered for 6 secs followed by washout period for 241 secs by voltage clamp technique; assay type: cell-based
# T2 sequence (P17787 whole entry): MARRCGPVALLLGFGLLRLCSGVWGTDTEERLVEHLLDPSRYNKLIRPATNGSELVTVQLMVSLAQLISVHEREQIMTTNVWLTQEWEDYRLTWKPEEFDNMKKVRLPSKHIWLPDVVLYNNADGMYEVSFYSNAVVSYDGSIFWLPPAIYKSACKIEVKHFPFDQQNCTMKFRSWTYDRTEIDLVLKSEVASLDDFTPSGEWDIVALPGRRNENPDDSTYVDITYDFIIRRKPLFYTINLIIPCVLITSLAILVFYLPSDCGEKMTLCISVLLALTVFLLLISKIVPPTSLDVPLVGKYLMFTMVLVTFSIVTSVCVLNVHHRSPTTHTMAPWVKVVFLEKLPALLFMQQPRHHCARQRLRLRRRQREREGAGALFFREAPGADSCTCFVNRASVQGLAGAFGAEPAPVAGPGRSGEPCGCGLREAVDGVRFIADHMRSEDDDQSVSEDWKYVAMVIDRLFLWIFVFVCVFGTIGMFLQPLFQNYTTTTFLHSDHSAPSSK
# T2 sequence (P43681 whole entry): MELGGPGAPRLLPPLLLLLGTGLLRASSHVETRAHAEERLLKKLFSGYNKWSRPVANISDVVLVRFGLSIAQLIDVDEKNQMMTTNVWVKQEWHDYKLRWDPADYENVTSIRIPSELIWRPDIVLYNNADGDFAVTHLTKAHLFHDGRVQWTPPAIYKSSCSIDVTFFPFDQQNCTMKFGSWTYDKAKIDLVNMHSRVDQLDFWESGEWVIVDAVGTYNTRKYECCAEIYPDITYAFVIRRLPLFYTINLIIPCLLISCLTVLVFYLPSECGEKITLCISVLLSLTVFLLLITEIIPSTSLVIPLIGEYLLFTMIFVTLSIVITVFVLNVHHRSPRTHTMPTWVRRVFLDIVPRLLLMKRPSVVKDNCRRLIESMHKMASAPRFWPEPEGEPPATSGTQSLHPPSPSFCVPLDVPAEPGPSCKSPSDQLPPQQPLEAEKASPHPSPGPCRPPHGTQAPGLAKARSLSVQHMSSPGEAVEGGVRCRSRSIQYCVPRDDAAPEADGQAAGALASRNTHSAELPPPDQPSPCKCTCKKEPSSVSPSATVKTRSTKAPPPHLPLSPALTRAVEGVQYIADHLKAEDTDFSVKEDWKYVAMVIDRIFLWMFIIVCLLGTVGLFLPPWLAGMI
# [10] = Hydrolytic stability of compound in water at 8.4 mM up to 60 days by [1H]-NMR spectroscopy; assay type: physicochemical; conditions: buffer, 1440 h, 8400 µM
# [11] = target: T3, Neuronal acetylcholine receptor; alpha3/beta2 (Homo sapiens) (UniProt P17787+P32297); assay: Agonist activity at human […] alpha3beta2 nAChR expressed in Xenopus laevis oocytes assessed as induction of current response at 30 uM administered for 6 secs followed by washout period for 241 secs by in presence of acetylcholine voltage clamp technique; assay type: cell-based
# [12] = target: T3, Neuronal acetylcholine receptor; alpha3/beta2 (Homo sapiens); assay: Antagonist activity at human […] alpha3beta2 nAChR expressed in Xenopus laevis oocytes assessed as inhibition of acetylcholine-induced current response at 30 uM administered for 6 secs followed by washout period for 241 secs by in presence of acetylcholine voltage clamp technique; assay type: cell-based
# [13] = Hydrolytic stability of compound in Ringers-D2O buffer at 8.4 mM at pH 7.2 up to 60 days by [1H]-NMR spectroscopy; assay type: physicochemical; conditions: pH 7.2, 1440 h, 8400 µM
# [14] = target: T1, Neuronal acetylcholine receptor subunit alpha-7; assay: Induction of human alpha7 nAChR desensitization expressed in Xenopus laevis oocytes at 100 uM pretreated for 30 secs followed by PNU-120596 administered for 10 secs by voltage clamp technique relative to acetylcholine; assay type: cell-based
# [15] = target: T2, Neuronal acetylcholine receptor; alpha4/beta2; assay: Antagonist activity at human alpha4beta2 nAChR expressed in Xenopus laevis oocytes assessed as inhibition of acetylcholine-induced current response administered for 6 secs followed by washout period for 241 secs by voltage clamp technique; assay type: cell-based
# [16] = target: T3, Neuronal acetylcholine receptor; alpha3/beta2 (Homo sapiens); assay: Antagonist activity at human ganglionic alpha3beta2 nAChR expressed in Xenopus laevis oocytes assessed as inhibition of acetylcholine-induced current response at 100 uM administered for 6 secs followed by washout period for 241 secs by in presence of acetylcholine voltage clamp technique; assay type: cell-based
# [17] = target: T3, Neuronal acetylcholine receptor; alpha3/beta2 (Homo sapiens); assay: Agonist activity at human ganglionic alpha3beta2 nAChR expressed in Xenopus laevis oocytes assessed as induction of current response at 30 uM administered for 6 secs followed by washout period for 241 secs by in presence of acetylcholine voltage clamp technique; assay type: cell-based
compound,measurement,setting,value
CC[N+]1(c2ccccc2)CCSCC1,Activity,[1],inactive
same,Activity,[2],inactive
same,Activity,[3],inactive
same,Activity,[4],inactive
CCN1CCN(c2ccccc2)CC1,Activity,[1],inactive
same,inhibition,[5],< 20%
same,Activity,[2],inactive
same,fold change (FC),[6],0
same,Activity,[7],inactive
same,Activity,[3],inactive
CC[N+]1(CC)CCN(c2ccccc2)CC1,Activity,[1],Active
same,Activity,[2],Active
same,fold change (FC),[6],0.47
same,IC50,[8],55 µM
same,Activity,[3],Active
CC[S+]1CCN(c2ccccc2)CC1.O=S(=O)([O-])C(F)(F)F,Activity,[9],inactive
same,Stability,[10],Stable
same,fold change (FC),[1],25
same,fold change (FC),[2],5
same,fold change (FC),[6],0.07
same,Activity,[11],inactive
same,inhibition,[12],Active
same,Stability,[13],Stable
same,Activity,[14],Active
same,IC50,[8],73 µM
same,fold change (FC),[3],3
same,IC50,[15],51 µM
same,inhibition,[16],Active
same,EC50,[4],40 µM
same,Activity,[17],inactive
